Data published in ChEMBL document CHEMBL5120936, “S-Protected Cysteine Sulfoxide-Enabled Tryptophan-Selective Modification with Application to Peptide Lipidation” (ACS Med Chem Lett, 2022).
Activity calls are given as the source filed them. No cut-off for these calls is given here.

Legend:
Assay type in all cases: functional, organism-based
Settings in all cases: dose 500.0 µg/kg
Mus musculus [1] = assay: Hypoglycemic activity in sixteen hrs fasted wild type C57BL/6 mouse assessed as reduction in blood glucose level at 500 microg/kg, ip followed by oral glucose at 2 g/Kg and measured for 120 mins by OGTT
Mus musculus [2] = assay: Hypoglycemic activity in sixteen hrs fasted wild type C57BL/6 mouse assessed as reduction in blood glucose level at 500 microg/kg, ip followed by oral glucose at 2 g/Kg and measured for 150 mins by OGTT
Mus musculus [3] = assay: Hypoglycemic activity in sixteen hrs fasted wild type C57BL/6 mouse assessed as increase in insulin concentration at 500 microg/kg, ip followed by oral glucose at 2 g/Kg and measured upto 150 mins by OGTT
Mus musculus [4] = assay: Hypoglycemic activity in sixteen hrs fasted wild type C57BL/6 mouse assessed as reduction in glucose concentration at 500 microg/kg, ip followed by oral glucose at 2 g/Kg and measured upto 150 mins by OGTT

CCCCCCCCCCCCCCCC(=O)NCCOCCOCCOCCOCCOCCOCC(=O)N[C@@H](CSc1[nH]c2ccccc2c1C[C@H](NC(=O)[C@H](C)NC(=O)[C@@H](NC(=O)[C@H](Cc1ccccc1)NC(=O)[C@H](CCC(=O)O)NC(=O)[C@H](CCCCN)NC(=O)[C@H](C)NC(=O)[C@H](C)NC(=O)[C@H](CCC(N)=O)NC(=O)CNC(=O)[C@H](CCC(=O)O)NC(=O)[C@H](CC(C)C)NC(=O)[C@H](Cc1ccc(O)cc1)NC(=O)[C@H](CO)NC(=O)[C@H](CO)NC(=O)[C@@H](NC(=O)[C@H](CC(=O)O)NC(=O)[C@H](CO)NC(=O)[C@@H](NC(=O)[C@H](Cc1ccccc1)NC(=O)[C@@H](NC(=O)CNC(=O)[C@H](CCC(=O)O)NC(=O)[C@H](C)NC(=O)[C@@H](N)Cc1cnc[nH]1)[C@@H](C)O)[C@@H](C)O)C(C)C)[C@@H](C)CC)C(=O)N[C@@H](CC(C)C)C(=O)N[C@H](C(=O)N[C@@H](CCCCN)C(=O)NCC(=O)N[C@@H](CCCNC(=N)N)C(=O)NCC(=O)O)C(C)C)C(N)=O was tested, and the Activity (Mus musculus [1]) was “Active” and the Activity (Mus musculus [2]) was “Active”.

CC[C@H](C)[C@H](NC(=O)[C@H](Cc1ccccc1)NC(=O)[C@H](CCC(=O)O)NC(=O)[C@H](CCCCN)NC(=O)[C@H](C)NC(=O)[C@H](C)NC(=O)[C@H](CCC(N)=O)NC(=O)CNC(=O)[C@H](CCC(=O)O)NC(=O)[C@H](CC(C)C)NC(=O)[C@H](Cc1ccc(O)cc1)NC(=O)[C@H](CO)NC(=O)[C@H](CO)NC(=O)[C@@H](NC(=O)[C@H](CC(=O)O)NC(=O)[C@H](CO)NC(=O)[C@@H](NC(=O)[C@H](Cc1ccccc1)NC(=O)[C@@H](NC(=O)CNC(=O)[C@H](CCC(=O)O)NC(=O)[C@H](C)NC(=O)[C@@H](N)Cc1c[nH]cn1)[C@@H](C)O)[C@@H](C)O)C(C)C)C(=O)N[C@@H](C)C(=O)N[C@@H](Cc1c[nH]c2ccccc12)C(=O)N[C@@H](CC(C)C)C(=O)N[C@H](C(=O)N[C@@H](CCCCN)C(=O)NCC(=O)N[C@@H](CCCN=C(N)N)C(=O)NCC(=O)O)C(C)C was tested, and the Activity (Mus musculus [3]) was “Active” and the Activity (Mus musculus [4]) was “Active”.

In the case of CCCCCCCCCCCCCCCC(=O)NCCOCCOCC(=O)N[C@@H](CSc1[nH]c2ccccc2c1C[C@H](NC(=O)[C@H](C)NC(=O)[C@@H](NC(=O)[C@H](Cc1ccccc1)NC(=O)[C@H](CCC(=O)O)NC(=O)[C@H](CCCCN)NC(=O)[C@H](C)NC(=O)[C@H](C)NC(=O)[C@H](CCC(N)=O)NC(=O)CNC(=O)[C@H](CCC(=O)O)NC(=O)[C@H](CC(C)C)NC(=O)[C@H](Cc1ccc(O)cc1)NC(=O)[C@H](CO)NC(=O)[C@H](CO)NC(=O)[C@@H](NC(=O)[C@H](CC(=O)O)NC(=O)[C@H](CO)NC(=O)[C@@H](NC(=O)[C@H](Cc1ccccc1)NC(=O)[C@@H](NC(=O)CNC(=O)[C@H](CCC(=O)O)NC(=O)[C@H](C)NC(=O)[C@@H](N)Cc1cnc[nH]1)[C@@H](C)O)[C@@H](C)O)C(C)C)[C@@H](C)CC)C(=O)N[C@@H](CC(C)C)C(=O)N[C@H](C(=O)N[C@@H](CCCCN)C(=O)NCC(=O)N[C@@H](CCCNC(=N)N)C(=O)NCC(=O)O)C(C)C)C(N)=O, the Activity (Mus musculus [1]) is reported as “Active” and the Activity (Mus musculus [2]) is reported as “Active”.
